According to publication PMC6149825, “PTP1B Inhibitors from the Entomogenous Fungi Isaria fumosorosea” (Molecules : A Journal of Synthetic Chemistry and Natural …, 2017):
Where two headings read alike, the source gives them in different places.

Target: T1, PTP1B (Homo sapiens, UniProt P18031)
T1 sequence (P18031 1-435): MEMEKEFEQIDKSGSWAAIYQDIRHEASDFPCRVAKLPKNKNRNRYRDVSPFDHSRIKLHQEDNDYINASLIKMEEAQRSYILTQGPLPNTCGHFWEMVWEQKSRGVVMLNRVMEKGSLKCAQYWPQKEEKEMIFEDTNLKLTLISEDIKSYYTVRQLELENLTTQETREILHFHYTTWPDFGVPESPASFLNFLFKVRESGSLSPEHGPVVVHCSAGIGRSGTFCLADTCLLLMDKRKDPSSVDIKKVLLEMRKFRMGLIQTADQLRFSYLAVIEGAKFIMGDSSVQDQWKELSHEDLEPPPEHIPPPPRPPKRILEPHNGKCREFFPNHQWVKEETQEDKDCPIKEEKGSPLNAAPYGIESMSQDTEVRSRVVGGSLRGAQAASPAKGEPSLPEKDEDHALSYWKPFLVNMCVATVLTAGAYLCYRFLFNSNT
Assay: PTP1B inhibition assay (hydrolysis of p-nitrophenyl phosphate, 96-well plate)
Description: PTP1B activity was measured as the rate of hydrolysis of p-nitrophenyl phosphate (pNPP) in a 96-well microtiter plate format [13]. […] Each experiment was performed in triplicate, and IC50 data were derived from three independent experiments.

IC50 [mM]	Molecule	IC50 (read-out: PTP1B inhibitory activity IC50, in vitro, pNPP substrate, triplicate, three independent experiments) [mM]
> 1	C[C@@H]1CCC(=O)C[C@H](O)[C@@H](O)CC(=O)O1 [Compound 2, Cepharosporolides C]	
> 1	C[C@@H]1CC[C@]2(C[C@@H]3OC(=O)C[C@@H]3O2)O1 [Compound 3, Cepharosporolides E]	
> 1	CC1CCC2(CC3OC(=O)CC3O2)O1 (centres unmarked) [Compound 4, Cepharosporolides F]	
	2-carboxymethyl-4-(3′-hydroxybutyl)furan [Compound 5]	> 1
0.00324 ± 0.00037	CCC(C)CC(C)C=C(C)C=CC=CC=C(C)C(O)=C1C(=O)NC(Cc2ccc(O)cc2)C1=O (centres unmarked) [Compound 1, fumosorinone A]	
